Source: US20120003191A1, “VALPROIC ACID, DERIVATIVES, ANALOGUES, AND COMPOSITIONS INCLUDING SAME AND METHODS FOR THEIR THERAPEUTIC USE” (priority 2009, published 2012)

Columns and labels:
α7 integrin = test: FDG based β-galactosidase fluorescent assay (reporter for α7 expression); format: cell-based, mouse; conditions: 2 mM VPA, 48 hours, α7+/− myotubes from day two of differentiation
Procedure: The α7^+/− mice were derived as reported in Flintoff-Dye, et al. Role for the alpha7beta1 integrin in vascular development and integrity, Dev. Dyn. 234:11-21 (2005). These mice were engineered to contain the LacZ gene driven by the α7 integrin promoter. Skeletal muscles from the hind limbs (including gastrocnemius-soleus, quadriceps and tibialis anterior) of a 3-week old α7^+/− mouse were removed under sterile conditions, finely minced in Hank's balanced salt solution (HBSS) and incubated in 5 ml of enzyme solution I consisting of 1.5 U/ml collagenase D (0.15 U/mg powder, from Roche Diagnostics, Indianapolis, Ind.), 2.4 U/ml dispase II (neutral protease, grade II, 0.8 U/mg powder, from Roche Diagnostics) and 2.5 mM calcium chloride for 30 minutes at 37° C. with trituration every 5 minutes. The supernatant was decanted into 5 ml of 20% fetal bovine serum (FBS) (Biomeda Corporation, Foster City, Calif.) in HBSS. Enzyme solution II consisting of 0.6 mg/ml trypsin (stock solution 0.5%, from Invitrogen) in HBSS was added to the remaining muscle fragments, incubated for 30 minutes as above, and the cell suspensions were pooled. […] The fluorescence in each well was quantified using an Analyst plate reader (Molecular Devices, Sunnyvale, Calif.).

type VI collagen = test: Western blotting of type VI collagen in quadriceps; format: in vivo, mouse; conditions: 240 mg/kg i.p. twice daily for 5 weeks
Procedure: mdx/utrn−/− mice lack both dystrophin and utrophin, and were bred and genotyped as reported in Burkin, et al., Enhanced expression of the alpha 7 beta 1 integrin reduces muscular dystrophy and restores viability in dystrophic mice, J. Cell Biol. 152:1207-18 (2001). 240 mg/kg body weight of VPA was injected intraperitoneally twice daily into mdx/utrn^−/− mice (n=9) starting at 3 weeks of age, for a period of 5 weeks. Control mice were injected with saline (n=9). Body-weights were determined daily.
Cell lysates of differentiating cells on 60 mm dishes were prepared as follows: the cells were washed twice with PBS and 200 μl Triton X-100 lysis buffer (2% Triton X-100, 20 mM Tris-Cl, pH 7.4, 150 mM NaCl, 1 mM EDTA, 1 mM EGTA, 2.5 mM NaPPi, 1 mM β-glycerophosphate, 1 mM sodium vanadate, 1:200 Protease Inhibitor Cocktail (EMD Chemicals, San Diego, Calif.) and 1 mM PMSF) were added. The cells were scraped and transferred into Eppendorf tubes, the cell suspensions were triturated and centrifuged at 8000×g at 4° C. for 10 minutes, and the supernatants were collected. […] Protein concentrations were determined by the Bradford assay. […] The supernatants were collected and protein concentrations were determined spectrophotometrically at OD260 and OD280. […] ImageQuant analysis software (Molecular Dynamics, Sunnyvale, Calif.) was used to quantify band intensity.

Compound: CCCC(CCC)C(=O)O [VPA, valproic acid]
- β-galactosidase activity (reporter for α7 expression), highest level (α7 integrin): 1.4 fold
- less type VI collagen in muscle than control mice (type VI collagen): approximately 3 fold
